Source: paper PMC6271239, “Synthesis and in Vitro Evaluation of New Nitro-Substituted Thiazolyl Hydrazone Derivatives as Anticandidal and Anticancer Agents” (Molecules, 2014)
In brackets after ≈: the same amount, converted by molar mass.

Experiments:
[1] = test system: MCF-7 human breast adenocarcinoma cell line; assay: MTT cytotoxicity assay; assay type: cell-based; details: 3.9–500 µg/mL; for IC50: Homo sapiens, MCF7, 24 h incubation
Procedure: (§1) The tetrazolium salt, MTT (3-(4,5-dimethylthiazol-2-yl)-2,5-diphenyltetrazolium bromide), is used to measure the metabolic activity of viable cells. Tetrazolium salts are reduced to formazan by mitochondrial succinate dehydrogenase, an enzyme which is only active in cells with an intact metabolism. The formazan can be quantified photometrically and it is in correlation with the number of viable cells. Cytotoxicity was tested using the MCF-7 human breast adenocarcinoma cell line and NIH/3T3 mouse embryonic fibroblast cell line. NIH/3T3 and MCF-7 cells were incubated in RPMI medium (Hyclone, Thermo Scientific, Logan, UT, USA) supplemented with fetal calf serum (Hyclone), 100 IU/mL penicillin and […] (Hyclone) at 37 °C in a humidified atmosphere of 95% air and 5% CO2. MCF-7 and NIH/3T3 cells were seeded at 10,000 cells into each well of 96-well plates. After 24 h of incubating period, the culture mediums were removed and compounds were added to culture medium at 3.9–500 µg/mL concentrations. After 24 h of incubation, cytotoxicity tests were performed using the MTT assay, which measures mitochondrial activity, in MCF-7 and NIH/3T3 cells. Firstly, 20 µL MTT solution (5 mg/mL MTT powder in PBS) was added to each well. After 3 h incubation period at 37 °C, 5% CO2, the contents of the wells were removed and 100 µL DMSO was added to each well. Then, OD of the plate was read at 570 nm. Inhibition% was calculated for each concentration of the compounds. IC50 values were estimated by non-linear regression analysis. Cisplatin was used as a positive control. Stock solutions of compounds were prepared in DMSO and further dilutions were made with fresh culture medium. All experiments were performed in duplicate.

[2] = test system: NIH/3T3 mouse embryonic fibroblast cell line; assay: MTT cytotoxicity assay; assay type: cell-based; details: 3.9–500 µg/mL; for IC50: Mus musculus, NIH3T3, 24 h incubation
Procedure: as §1

[3] = test system: Candida glabrata (ATCC 2001); assay: Anticandidal broth microdilution assay; assay type: cell-based; details: Nakaseomyces glabratus, ATCC2001, RPMI, 37 °C, 24 h
Procedure: (§2) Anticandidal activity assay was performed against Candida albicans (ATCC 10231), Candida utilis (NRRLY 900), Candida tropicalis (NRRLY 12968), Candida krusei (NRRLY 7179), Candida parapsilosis (NRRLY 12696) and Candida glabrata (ATCC 2001) standard strains according to the CSLI method.
(§3) The minimum inhibitory concentration (MIC, µg/mL) values against pathogenic Candida strains were determined by a broth microdilution method using a 96-well plate format. Compounds 1–14 and fluconazole as a standard control were first dissolved in dimethyl sulfoxide (DMSO) (25%) at an initial concentration of 2000 µg/mL.
(§4) All Candida strains were inoculated on Potato Dextrose Agar (PDA) prior the experiments at 37 °C. After the incubation, sufficiently grown microorganisms were inoculated in sterile saline (0.85%), and then standardized according to the turbidity to 5 × 10^3 CFU (McFarland No: 0.5) per well in RPMI medium under sterile conditions. Serial dilutions were prepared in 100 µL RPMI medium with an equal amount of the test samples, and 100 µL each microorganism suspension was pipetted into each well and incubated at 37 °C for 24 h. Positive growth controls (to assess the presence of turbidity) were performed in wells without the test samples, whereas the negative growth control (medium) was also evaluated. MIC was deﬁned as the lowest concentration without any visible growth of the yeast when compared with the growth in the control plate. All experiments were performed in duplicate.

[4] = test system: Candida parapsilosis (NRRLY 12696); assay: Anticandidal broth microdilution assay; assay type: cell-based; details: Lodderomyces parapsilosis, RPMI, 37 °C, 24 h
Procedure: as §2, §3, §4

[5] = test system: Candida tropicalis (NRRLY 12968); assay: Anticandidal broth microdilution assay; assay type: cell-based; details: RPMI, 37 °C, 24 h
Procedure: as §2, §3, §4

[6] = test system: Candida krusei (NRRLY 7179); assay: Anticandidal broth microdilution assay; assay type: cell-based; details: Pichia kudriavzevii, RPMI, 37 °C, 24 h
Procedure: as §2, §3, §4

[7] = test system: Candida albicans (ATCC 10231); assay: Anticandidal broth microdilution assay; assay type: cell-based; details: ATCC10231, RPMI, 37 °C, 24 h
Procedure: as §2, §3, §4

[8] = test system: Candida utilis (NRRLY 900); assay: Anticandidal broth microdilution assay; assay type: cell-based; details: Williopsis jadinii, RPMI, 37 °C, 24 h
Procedure: as §2, §3, §4

| Compound | IC50 MCF-7 Cell Line ([1]; 24 h incubation) | IC50 NIH/3T3 Cell Line ([2]; 24 h incubation) | IC50 [1] | IC50 [2] | melting point | MIC [3] | MIC [4] | MIC [5] | MIC [6] | MIC [7] | MIC [8] |
| --- | --- | --- | --- | --- | --- | --- | --- | --- | --- | --- | --- |
| N.N.[Cl][Pt][Cl] [Cisplatin, reference compound] | 31.2 µg/mL | 330.58 µg/mL |  |  |  |  |  |  |  |  |  |
| O=[N+]([O-])c1ccc(-c2ccc(C=NNc3nc(-c4ccccc4)cs3)o2)cc1 [Compound 1, 2-[2-((5-(4-Nitrophenyl)furan-2-yl)methylene)hydrazinyl]-4-phenylthiazole] |  |  | > 500 µg/mL | > 500 µg/mL | 213 to 214 °C | 1000 µg/mL (≈ 2560 µM) | 500 µg/mL (≈ 1280 µM) | 1000 µg/mL (≈ 2560 µM) | 500 µg/mL (≈ 1280 µM) | 500 µg/mL (≈ 1280 µM) | 500 µg/mL (≈ 1280 µM) |
| O=[N+]([O-])c1ccc(-c2csc(NN=Cc3ccc(-c4ccc([N+](=O)[O-])cc4)o3)n2)cc1 [Compound 2, 4-(4-Nitrophenyl)-2-[2-((5-(4-nitrophenyl)furan-2-yl)methylene)hydrazinyl]thiazole] |  |  | > 500 µg/mL | > 500 µg/mL | 252 to 254 °C | 1000 µg/mL (≈ 2300 µM) | 500 µg/mL (≈ 1150 µM) | 500 µg/mL (≈ 1150 µM) | 500 µg/mL (≈ 1150 µM) | 500 µg/mL (≈ 1150 µM) | 500 µg/mL (≈ 1150 µM) |
| O=[N+]([O-])c1ccc(-c2ccc(C=NNc3nc(-c4ccc(F)cc4)cs3)o2)cc1 [Compound 3, 4-(4-Fluorophenyl)-2-[2-((5-(4-nitrophenyl)furan-2-yl)methylene)hydrazinyl]thiazole] |  |  | 500 µg/mL (≈ 1220 µM) | 250 µg/mL (≈ 612 µM) | 241 to 242 °C | 1000 µg/mL (≈ 2450 µM) | 500 µg/mL (≈ 1220 µM) | 500 µg/mL (≈ 1220 µM) | 500 µg/mL (≈ 1220 µM) | 500 µg/mL (≈ 1220 µM) | 500 µg/mL (≈ 1220 µM) |
| O=[N+]([O-])c1ccc(-c2ccc(C=NNc3nc(-c4ccc(Cl)cc4)cs3)o2)cc1 [Compound 4, 4-(4-Chlorophenyl)-2-[2-((5-(4-nitrophenyl)furan-2-yl)methylene)hydrazinyl]thiazole] |  |  | > 500 µg/mL | > 500 µg/mL | 229 to 231 °C | 500 µg/mL (≈ 1180 µM) | 1000 µg/mL (≈ 2350 µM) | 500 µg/mL (≈ 1180 µM) | 500 µg/mL (≈ 1180 µM) | 500 µg/mL (≈ 1180 µM) | 500 µg/mL (≈ 1180 µM) |
| O=[N+]([O-])c1ccc(-c2ccc(C=NNc3nc(-c4ccc(Br)cc4)cs3)o2)cc1 [Compound 5, 4-(4-Bromophenyl)-2-[2-((5-(4-nitrophenyl)furan-2-yl)methylene)hydrazinyl]thiazole] |  |  | > 500 µg/mL | > 500 µg/mL | 243 to 244 °C | 1000 µg/mL (≈ 2130 µM) | 500 µg/mL (≈ 1070 µM) | 500 µg/mL (≈ 1070 µM) | 1000 µg/mL (≈ 2130 µM) | 500 µg/mL (≈ 1070 µM) | 500 µg/mL (≈ 1070 µM) |
| Cc1ccc(-c2csc(NN=Cc3ccc(-c4ccc([N+](=O)[O-])cc4)o3)n2)cc1 [Compound 6, 2-[2-((5-(4-Nitrophenyl)furan-2-yl)methylene)hydrazinyl]-4-(p-tolyl)thiazole] |  |  | > 500 µg/mL | > 500 µg/mL | 236 to 237 °C | 500 µg/mL (≈ 1240 µM) | 500 µg/mL (≈ 1240 µM) | 1000 µg/mL (≈ 2470 µM) | 1000 µg/mL (≈ 2470 µM) | 500 µg/mL (≈ 1240 µM) | 500 µg/mL (≈ 1240 µM) |
| COc1ccc(-c2csc(NN=Cc3ccc(-c4ccc([N+](=O)[O-])cc4)o3)n2)cc1 [Compound 7, 4-(4-Methoxyphenyl)-2-[2-((5-(4-nitrophenyl)furan-2-yl)methylene)hydrazinyl]thiazole] |  |  | > 500 µg/mL | > 500 µg/mL | 232 to 233 °C | 1000 µg/mL (≈ 2380 µM) | 500 µg/mL (≈ 1190 µM) | 500 µg/mL (≈ 1190 µM) | 500 µg/mL (≈ 1190 µM) | 500 µg/mL (≈ 1190 µM) | 500 µg/mL (≈ 1190 µM) |
| O=[N+]([O-])c1cc(Cl)ccc1-c1ccc(C=NNc2nc(-c3ccccc3)cs2)o1 [Compound 8, 2-[2-((5-(4-Chloro-2-nitrophenyl)furan-2-yl)methylene)hydrazinyl]-4-phenylthiazole] |  |  | > 500 µg/mL | > 500 µg/mL | 194 to 195 °C | 1000 µg/mL (≈ 2350 µM) | 1000 µg/mL (≈ 2350 µM) | 500 µg/mL (≈ 1180 µM) | 500 µg/mL (≈ 1180 µM) | 500 µg/mL (≈ 1180 µM) | 500 µg/mL (≈ 1180 µM) |
| O=[N+]([O-])c1ccc(-c2csc(NN=Cc3ccc(-c4ccc(Cl)cc4[N+](=O)[O-])o3)n2)cc1 [Compound 9, 2-[2-((5-(4-Chloro-2-nitrophenyl)furan-2-yl)methylene)hydrazinyl]-4-(4-nitrophenyl)thiazole] |  |  | 103 µg/mL (≈ 218 µM) | 86.3 µg/mL (≈ 184 µM) | 216 to 220 °C | 1000 µg/mL (≈ 2130 µM) | 500 µg/mL (≈ 1060 µM) | 500 µg/mL (≈ 1060 µM) | 500 µg/mL (≈ 1060 µM) | 500 µg/mL (≈ 1060 µM) | 500 µg/mL (≈ 1060 µM) |
| O=[N+]([O-])c1cc(Cl)ccc1-c1ccc(C=NNc2nc(-c3ccc(F)cc3)cs2)o1 [Compound 10, 2-[2-((5-(4-Chloro-2-nitrophenyl)furan-2-yl)methylene)hydrazinyl]-4-(4-fluorophenyl)thiazole] |  |  | 122 µg/mL (≈ 275 µM) | 250 µg/mL (≈ 565 µM) | 208 to 209 °C | 1000 µg/mL (≈ 2260 µM) | 500 µg/mL (≈ 1130 µM) | 500 µg/mL (≈ 1130 µM) | 1000 µg/mL (≈ 2260 µM) | 500 µg/mL (≈ 1130 µM) | 250 µg/mL (≈ 565 µM) |
| O=[N+]([O-])c1cc(Cl)ccc1-c1ccc(C=NNc2nc(-c3ccc(Cl)cc3)cs2)o1 [Compound 11, 2-[2-((5-(4-Chloro-2-nitrophenyl)furan-2-yl)methylene)hydrazinyl]-4-(4-chlorophenyl)thiazole] |  |  | 125 µg/mL (≈ 272 µM) | > 500 µg/mL | 186 to 187 °C | 1000 µg/mL (≈ 2180 µM) | 500 µg/mL (≈ 1090 µM) | 500 µg/mL (≈ 1090 µM) | 1000 µg/mL (≈ 2180 µM) | 500 µg/mL (≈ 1090 µM) | 500 µg/mL (≈ 1090 µM) |
| O=[N+]([O-])c1cc(Cl)ccc1-c1ccc(C=NNc2nc(-c3ccc(Br)cc3)cs2)o1 [Compound 12, 4-(4-Bromophenyl)-2-[2-((5-(4-chloro-2-nitrophenyl)furan-2-yl)methylene)hydrazinyl]thiazole] |  |  | 500 µg/mL (≈ 993 µM) | > 500 µg/mL | 199 to 201 °C | 500 µg/mL (≈ 993 µM) | 500 µg/mL (≈ 993 µM) | 1000 µg/mL (≈ 1990 µM) | 1000 µg/mL (≈ 1990 µM) | 500 µg/mL (≈ 993 µM) | 1000 µg/mL (≈ 1990 µM) |
| Cc1ccc(-c2csc(NN=Cc3ccc(-c4ccc(Cl)cc4[N+](=O)[O-])o3)n2)cc1 [Compound 13, 2-[2-((5-(4-Chloro-2-nitrophenyl)furan-2-yl)methylene)hydrazinyl]-4-(p-tolyl)thiazole] |  |  | 500 µg/mL (≈ 1140 µM) | > 500 µg/mL | 166 to 167 °C | 500 µg/mL (≈ 1140 µM) | 1000 µg/mL (≈ 2280 µM) | 500 µg/mL (≈ 1140 µM) | 500 µg/mL (≈ 1140 µM) | 250 µg/mL (≈ 570 µM) | 500 µg/mL (≈ 1140 µM) |
| COc1ccc(-c2csc(NN=Cc3ccc(-c4ccc(Cl)cc4[N+](=O)[O-])o3)n2)cc1 [Compound 14, 2-[2-((5-(4-Chloro-2-nitrophenyl)furan-2-yl)methylene)hydrazinyl]-4-(4-methoxyphenyl)thiazole] |  |  | > 500 µg/mL | > 500 µg/mL | 206 to 207 °C | 500 µg/mL (≈ 1100 µM) | 500 µg/mL (≈ 1100 µM) | 250 µg/mL (≈ 550 µM) | 500 µg/mL (≈ 1100 µM) | 250 µg/mL (≈ 550 µM) | 250 µg/mL (≈ 550 µM) |
| OC(Cn1cncn1)(Cn1cncn1)c1ccc(F)cc1F [Fluconazole, reference compound] |  |  |  |  |  | 2 µg/mL (≈ 6.53 µM) | 2 µg/mL (≈ 6.53 µM) | 1 µg/mL (≈ 3.27 µM) | 2 µg/mL (≈ 6.53 µM) | 1 µg/mL (≈ 3.27 µM) | 2 µg/mL (≈ 6.53 µM) |
